Tested on: T1, FabI2 ENR (metagenomic YX7K type enoyl-acyl carrier protein reductase)
T1 construct: fabI2 gene in pET-30b(+) (BamHI/SalI), vector pAF1-5; His-tag fusion protein from E. coli BL21(DE3), tag cleavage not mentioned
Test: spectrophotometric NADH oxidation at […] nm, Michaelis-Menten fit
Assay type: biochemical, uncultured bacterium
Conditions: 100 nM enzyme, 100 mM sodium phosphate pH 7.0, 25 °C

| Compound | Km (60 µM crotonyl-CoA) | Km (200 µM NADH) |
| --- | --- | --- |
| NC(=O)C1=CN([C@@H]2O[C@H](COP(=O)(O)OP(=O)(O)OC[C@H]3O[C@@H](n4cnc5c(N)ncnc54)[C@H](O)[C@@H]3O)[C@@H](O)[C@H]2O)C=CC1 [NADH] | 18.2 µM | – |
| C/C=C/C(=O)SCCNC(=O)CCNC(=O)[C@H](O)C(C)(C)COP(=O)(O)OP(=O)(O)OC[C@H]1O[C@@H](n2cnc3c(N)ncnc32)[C@H](O)[C@@H]1OP(=O)(O)O [crotonyl-CoA] | – | 13.8 µM |

— paper PMC6817880, “Biochemical and Structural Insights Concerning Triclosan Resistance in a Novel YX7K Type Enoyl-Acyl Carrier Protein Reductase from Soil Metagenome” (Scientific Reports, 2019)
